{"source": "patent US5733931A", "about": "“Cyclohexanediurea derivative and process for its production” (Nissin Food Products Co., Ltd., priority 1993, dated 1998)", "key": {"[1]": {"test_system": "ACAT enzyme of human CaCo2 cells", "experiment": "ACAT enzyme activity of human CaCo2 cells (microsome fractions)", "format": "biochemical", "conditions": "Table 11, read-out: IC50, inhibitory effect on ACAT enzyme activity, human CaCo2", "protocol": "(§1) ACAT enzyme activities of the microsomes were determined by the method of J. G. Heider (J. Lipid Res., 24, 1127-1134, 1983). A test sample dissolved in 1% dimethylsulfoxide was added to a microsome fraction (100 μg), a phosphoric acid buffer (0.154M) having pH 7.4, 1-^14 C-oleoyl CoA (36 μM), dithiosleitol (2 mM) and bovine blood serum albumin (36 μg/ml). The reaction mixture adjusted to a final capacity of 0.5 ml was incubated at 37° C. for 60 minutes. A mixture (6 ml) of chloroform and methanol (2:1) was added and the reaction was stopped. Cholesterol oleate was extracted with chloroform and separated by thin-layer chromatography. ACAT enzyme activities of the microsome fractions were determined by radiation measurement.\n(§2) [2-2] ACAT enzyme activities of human HepG2 and CaCo2 cells\n(§3) Human HepG2 and CaCo2 cells purchased from ATCC (AMERICAN TYPE CULTURE COLLECTION) were used in this test.\n(§4) Using RPMI 1640 medium for HepG2 and DMEM medium for CaCo2, HepG2 and CaCo2 cells were cultured with 40 ml of each medium containing 10% bovine blood serum, 50 I.U. of penicillin and 50 μg/ml of streptomycin in a 5% CO2 incubator at 37° C. The cells were then monolayer-culturedwith 80 ml of each medium containing […] of cholesterol and 5 μg/ml of 25-0H cholesterol in a 175 cm flask for 5 hours. The homogenizes of these cells were subjected to centrifugation at 105,000 g to collect microsome fractions. ACAT enzyme activities of the microsome fractions were determined by the above-mentioned method."}, "[2]": {"test_system": "serum cholesterol", "experiment": "Serum cholesterol lowering effect in rat having high cholesterol [3-1]", "format": "in vivo, SD-type (Sprague-Dawley) male rat", "conditions": "oral, once a day for 5 days, dissolved in saline, Table 12", "protocol": "3) Cholesterol Lowering Effect\n[3-1] Using a rat having high cholesterol, compounds of the invention were tested for their serum cholesterol lowering effects by the following method. A 6-week-old SD-type (Sprague-Dawley) male rat was fed with food containing 1% of cholesterol, 0.5% of cholic acid and 5% of olive oil for 2 days and then orally administered the food and a compound of the invention as dissolved in saline once a day for 5 days starting on day 3. Four hours after the final administration, a blood sample was taken. The total cholesterol in the serum of the test group was measured and compared with that of the control group."}, "[3]": {"target": "ACAT enzyme of rabbit liver microsomes", "experiment": "Inhibitory effect on ACAT enzyme (No.2), rabbit liver microsomes", "format": "biochemical", "conditions": "pH 7.4, 37° C., 60 minutes, Table 10", "protocol": "(§5) 2) Inhibitory effect on ACAT (Acyl-CoA: cholesterol acyltransferase) enzyme (No.2)\n(§6) [2-1] ACAT enzyme activities of rabbit liver and small intestine mucosa microsomes\n(§7) A white male rabbit was fed with a […] cholesterol-containing food for four weeks and bleeding-slaughtered to extract its liver and small intestine. Microsomes of the liver and small intestine mucosa were prepared by the method of C. Marco et al. (Biochim. Biophys. Acta, 617, 458-471, 1980).\nas §1"}, "[4]": {"test_system": "serum cholesterol", "experiment": "Serum cholesterol lowering effect in rat having high cholesterol [3-2]", "format": "in vivo, SD-type (Sprague-Dawley) male rat", "conditions": "oral, once a day for the last 5 days, Tween 80 and saline suspension, Table 13", "protocol": "[3-2] Using a rat having high cholesterol, compounds of the invention were tested for their serum cholesterol lowering effects by the following method. A 6-week-old SD-type (Sprague-Dawley) male rat was fed with food containing 1% of cholesterol, 0.5% of cholic acid and 5% of olive oil for 7 days. For the last 5 days, a test sample suspended in some drops of Tween 80 and saline was orally administered once a day. Four hours after the final administration, a blood sample was taken from celiac aorta of the rat under etherization. The total cholesterol in the serum of the test group was measured by the oxygen method and compared with that of the control group."}, "[5]": {"test_system": "ACAT enzyme of human HepG2 cells", "experiment": "ACAT enzyme activity of human HepG2 cells (microsome fractions)", "format": "biochemical", "conditions": "Table 11, read-out: IC50, inhibitory effect on ACAT enzyme activity, human HepG2", "protocol": "as §1, §2, §3, §4"}, "[6]": {"target": "ACAT (Acyl-CoA: cholesterol acyltransferase) enzyme of rabbit liver microsome", "experiment": "Inhibitory effect on ACAT enzyme (No.1), rabbit liver microsome", "format": "biochemical", "conditions": "Table 9", "protocol": "1) Inhibitory effect on ACAT (Acyl-CoA: cholesterol acyltransferase) enzyme (No.1)\nCompounds of the invention were tested for their inhibitory effects on ACAT enzyme of rabbit liver microsome by the method of J. G. Heider (J. of Lipid Res., vol. 24, 1127-1134, 1983). More specifically, the test was done by measuring the amount of labelled cholesterol oleate ester produced from oleic acid CoA (coenzyme A) labelled by radiation."}, "[7]": {"target": "T1, ACAT enzyme of rabbit small intestine mucosa microsomes (Oryctolagus cuniculus, UniProt G1SFD9)", "T1 construct": "Microsomes of the liver and small intestine mucosa were prepared; from tissue; host or cells: small intestine mucosa microsomes of a cholesterol-fed white male rabbit", "T1 sequence (G1SFD9 1-524)": "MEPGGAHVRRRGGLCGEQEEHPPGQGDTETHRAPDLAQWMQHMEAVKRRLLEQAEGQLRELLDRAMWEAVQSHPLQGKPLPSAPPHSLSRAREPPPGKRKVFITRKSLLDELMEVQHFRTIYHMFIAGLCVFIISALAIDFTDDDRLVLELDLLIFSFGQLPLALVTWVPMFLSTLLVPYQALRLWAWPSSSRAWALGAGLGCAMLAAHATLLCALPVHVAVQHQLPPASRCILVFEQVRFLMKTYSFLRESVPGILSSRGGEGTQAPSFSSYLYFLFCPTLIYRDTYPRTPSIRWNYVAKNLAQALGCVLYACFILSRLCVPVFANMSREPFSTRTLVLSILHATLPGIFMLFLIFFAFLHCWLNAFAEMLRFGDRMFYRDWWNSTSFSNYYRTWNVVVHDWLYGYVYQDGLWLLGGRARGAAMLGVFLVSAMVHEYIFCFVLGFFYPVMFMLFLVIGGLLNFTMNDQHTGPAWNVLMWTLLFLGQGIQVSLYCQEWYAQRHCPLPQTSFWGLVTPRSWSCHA", "experiment": "Inhibitory effect on ACAT enzyme (No.2), rabbit small intestine mucosa microsomes", "format": "biochemical", "conditions": "pH 7.4, 37° C., 60 minutes, Table 10", "protocol": "as §5, §6, §7, §1"}}, "note": "pIC50: −log10 of the molar value.", "data": [{"smiles": "CC1CCC(N(C[C@H]2CC[C@H](CN(C(=O)Nc3ccc(N(C)C)cc3)C3CCC(C)CC3)CC2)C(=O)Nc2ccc(N(C)C)cc2)CC1", "note": "(relative stereo) [Example 28, Trans-1,4-bis[[3-(4-dimethylaminophenyl)-1-(4-methylcyclohexyl)ureido]methyl]cyclohexane]", "values": [{"measurement": "pIC50", "setting": "[1]", "value": 9.28}, {"measurement": "Cholesterol lowering effect, % (serum total cholesterol vs control group)", "setting": "[2]; 3 mg/kg", "value": 106, "unit": "%"}, {"measurement": "Cholesterol lowering effect, % (serum total cholesterol vs control group)", "setting": "[2]; 10 mg/kg", "value": 100, "unit": "%"}, {"measurement": "pIC50", "setting": "[3]", "value": 7.38}, {"measurement": "Cholesterol lowering effect, % (serum total cholesterol vs control group)", "setting": "[4]; 1 mg/kg", "value": 70.2, "unit": "%"}, {"measurement": "Cholesterol lowering effect, % (serum total cholesterol vs control group)", "setting": "[4]; 3 mg/kg", "value": 106.5, "unit": "%"}, {"measurement": "pIC50", "setting": "[5]", "value": 8.92}, {"measurement": "pIC50", "setting": "[6]", "value": 7.60}, {"measurement": "pIC50", "setting": "[7]", "value": 7.52}]}, {"smiles": "CN(C)c1ccc(NC(=O)N(C[C@H]2CC[C@H](CN(C(=O)Nc3ccc(N(C)C)cc3)C3CCCCC3)CC2)C2CCCCC2)cc1", "note": "[Example 12-1, Trans-1,4-bis[[1-cyclohexyl-3-(4-dimethylaminophenyl)ureido]methyl]cyclohexane]", "values": [{"measurement": "pIC50", "setting": "[1]", "value": 8.82}, {"measurement": "pIC50", "setting": "[3]", "value": 7.11}, {"measurement": "Cholesterol lowering effect, % (serum total cholesterol vs control group)", "setting": "[4]; 1 mg/kg", "value": 100.4, "unit": "%"}, {"measurement": "Cholesterol lowering effect, % (serum total cholesterol vs control group)", "setting": "[4]; 3 mg/kg", "value": 108.3, "unit": "%"}, {"measurement": "pIC50", "setting": "[5]", "value": 8.82}, {"measurement": "pIC50", "setting": "[7]", "value": 7.54}]}]}
